How the values were obtained:
[1] = test system: MT4 Zellen; experiment: Cytotoxicity: inhibition of proliferation of MT4 cells; type: cell-based; settings: MT4 cells; 50 % inhibition of cell multiplication after 48 h
Method: (§1) Unter dem Aspekt einer möglichen Anwendung der Verbindungen am Menschen wurden ihre antiproliferativen Wirkungen an menschlichen Zellkulturen wie früher beschrieben getestet (E. Matthes et al. Biochem.Biophys.Res.Commun. 153, 825 (1988)). Dabei zeigte sich, daß z.B. 2′,3′-Didesoxy-3-fluor-5-methylcytidin gegenüber der T-Zellinie MT4 eine CD₅₀ von 190 µM aufweist. In einem weiteren Test, in dem eine mögliche Wachstumshemmung koloniebildender Zellen des Knochenmarks der Maus (CFU-GM) untersucht wurde (E. Matthes et al. Biochem.Biophys.Res.Commun. 165, 488 (1989), erwies sich diese Verbindung ebenfalls als kaum proliferationshemmend (CD₅₀ > 500 µM). Die Wirkung weiterer Verbindungen auf die Proliferation von MT4-Zellen ist in Tabelle 3 zusammengefaßt. Tabelle 3

[2] = test system: Hep G2 (2.2.15)-Zellen; experiment: DNA synthesis of Hep G2 (2.2.15) cells (acid-insoluble radioactivity after 3H-thymidine or 3H-deoxyadenosine); type: cell-based, menschlichen; settings: 4 days, then 24 h label, mean ± SD of five experiments
Method: (§2) Die Testung der antiviralen Wirksamkeit der Nucleoside auf zelluärer Ebene erfolgte an einer menschlichen Hepatoblastom-Zellinie, die mit dem HBV-Genom tranfiziert wurde und sowohl das Oberflächenantigen des Virus (HBsAg) als auch die HBV-DNA permanent produziert und infektiöse Viruspartikel in das Medium abgibt (Hep G2-Zellen, Klon 2.2.15, Sells et al. Proc.Natl.Acad. Sci. 84, 1005 (1987)). Die Zellen (5x10⁵/ml) wurden in RPMI 1640-Medium mit 2 mM Glutamin und 10% fetalem Kälberserum allein oder zusammen mit den Nucleosid-Analoga für 4 Tage inkubiert, danach wurden den Ansätzen für 24 Stunden ³H-Thymidin bzw. ³H-Desoxyadenosin (3 µCi/ml) zugesetzt, die Zellen abzentrifugiert und darin die säureunlösliche Radioaktivität und damit der Einfluß auf die DNA-Synthese bestimmt. Im Inkubationsmedium wurde das HBsAg durch Festphasenradioimmunoassay (Travenol-Genentech Diagnostics, Cambridge, MA) entsprechend den Instruktionen des Herstellers ermittelt. Die Tabelle 4 faßt die Ergebnisse zusammen, die belegen, daß die getesteten Verbindungen hochwirksame und selektive Hemmstoffe der HBV-Vermehrung sind.

[3] = test system: koloniebildender Zellen des Knochenmarks der Maus (CFU-GM); experiment: Growth inhibition of colony-forming bone marrow cells (CFU-GM); type: cell-based; settings: mouse bone marrow
Method: as §1

[4] = target: T1, HBV-Polymerase (Hepatitis B virus genotype D subtype ayw, UniProt P03156); experiment: Inhibition of HBV polymerase activity by nucleoside triphosphate analogues (method of Kaplan et al.); type: biochemical; settings: 50 % inhibition of HBV polymerase activity; 3 h incubation at 37 °C; read-out: ID₅₀
T1 construct: Es wurde zunächst die Hemmbarkeit der HBV-assoziierten Polymerase; host or cells: virus-associated endogenous polymerase
T1 sequence (P03156 whole entry): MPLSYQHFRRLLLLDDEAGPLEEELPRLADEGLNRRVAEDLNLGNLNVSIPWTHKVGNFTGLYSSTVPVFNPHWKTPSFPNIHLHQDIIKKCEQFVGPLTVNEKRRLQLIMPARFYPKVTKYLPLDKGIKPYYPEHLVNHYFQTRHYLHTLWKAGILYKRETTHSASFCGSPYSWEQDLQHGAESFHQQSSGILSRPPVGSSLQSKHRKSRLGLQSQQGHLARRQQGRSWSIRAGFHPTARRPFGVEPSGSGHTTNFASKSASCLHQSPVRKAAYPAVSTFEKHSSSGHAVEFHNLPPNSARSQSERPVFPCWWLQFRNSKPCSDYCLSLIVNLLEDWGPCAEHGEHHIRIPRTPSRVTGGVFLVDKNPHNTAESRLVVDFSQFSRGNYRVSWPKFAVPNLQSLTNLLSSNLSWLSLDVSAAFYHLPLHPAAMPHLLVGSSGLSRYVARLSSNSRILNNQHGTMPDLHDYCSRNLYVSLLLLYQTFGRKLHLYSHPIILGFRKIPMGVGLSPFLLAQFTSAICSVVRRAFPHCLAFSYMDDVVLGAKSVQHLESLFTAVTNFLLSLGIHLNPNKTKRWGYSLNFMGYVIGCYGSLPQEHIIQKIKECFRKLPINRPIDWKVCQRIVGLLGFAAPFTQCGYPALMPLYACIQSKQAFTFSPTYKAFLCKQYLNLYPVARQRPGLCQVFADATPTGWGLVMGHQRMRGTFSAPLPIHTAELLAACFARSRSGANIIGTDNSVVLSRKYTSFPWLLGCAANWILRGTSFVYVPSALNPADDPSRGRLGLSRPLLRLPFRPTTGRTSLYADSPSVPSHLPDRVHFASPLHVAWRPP
Source text: Das Hepatitis B Virus (HBV) besitzt eine zirkuläre, partiell doppelsträngige DNA, welche nach Infektion einer Leberzelle durch eine viruseigene Polymerase repliziert wird. Dieser Vorgang setzt jedoch die Synthese einer RNA durch eine zelluläre RNA-Polymerase voraus. Nur diese RNA-Matrize - im Zusammenhang mit der Replikation auch als Prägenom bezeichnet - kann von der HBV-Polymerase für die Synthese zunächst eines RNA-DNA Hybrids und dann der doppelsträngigen DNA benutzt werden. Damit verfügt die HBV-Polymerase über eine enzymatische Aktivität, die der einer reversen Transcriptase ähnelt (Will et al., J.Virology 61, 904 (1987)). Es wurde zunächst die Hemmbarkeit der HBV-assoziierten Polymerase durch die 5′-Triphosphate der erfindungsgemäßen Verbindungen untersucht. Dazu wurde die von Kaplan et al. (J.Virology 12, 995 (1973)) angegebene Methode zur Bestimmung der HBV-Polymerase benutzt, wobei die zu testenden Triphosphate den Ansätzen in verschiedenen Konzentrationen zugesetzt wurden. Die Hemmung der Enzymreaktion wurde nach 3-stündiger Inkubation bei 37 °C durch Vergleich mit einem Kontrollwert ermittelt und daraus die Konzentration der zugesetzten Analoga bestimmt, die zu einer 50 %igen Hemmung der HBV-Polymerase-Aktivität führt (ID₅₀). Tabelle 1 zeigt die Ergebnisse, wobei insbesondere 2′,3′-Didesoxy-3′-fluor-5-methylcytidin durch einen Wert ID₅₀ von 0,03 µM herausragt und damit zu den stärksten bisher bekannten Hemmstoffen der HBV-Polymerase zu rechnen ist. Tabelle 1

[5] = test system: HBsAg-Sekretion von Hep G2 (2.2.15)-Zellen; experiment: Inhibition of HBsAg secretion of Hep G2 (2.2.15) cells (solid-phase radioimmunoassay of the medium); type: cell-based, HBV
Method: as §2

## Cc1cn([C@H]2C[C@H](F)[C@@H](CO)O2)c(=O)nc1N [2′,3′-Didesoxy-3′-fluor-5-methylcytidin]
[1]
  CD₅₀: 190 µM
[2]; nucleoside 0,01 µM
  ^3H-DNA: 15060 ± 1895 dpm/Kultur
[2]; nucleoside 0,1 µM
  ^3H-DNA: 14350 ± 1520 dpm/Kultur
[2]; nucleoside 0,03 µM
  ^3H-DNA: 15580 ± 1910 dpm/Kultur
[2]; nucleoside 0,3 µM
  ^3H-DNA: 13175 ± 1975 dpm/Kultur
[2]; nucleoside 0,003 µM
  ^3H-DNA: 13270 ± 1650 dpm/Kultur
[2]; nucleoside 1,0 µM
  ^3H-DNA: 8295 ± 1010 dpm/Kultur
[2]; nucleoside 3,0 µM
  ^3H-DNA: 2470 ± 295 dpm/Kultur
[3]
  CD₅₀: > 500 µM
[4]
  IC50: 30 nM
[5]; nucleoside 0,01 µM, 4 days + 24 h, mean ± SD of five experiments
  HBsAg: 7,0 ± 0,9 ng/ml
[5]; nucleoside 0,1 µM, 4 days + 24 h, mean ± SD of five experiments
  HBsAg: 0,4 ± 0,1 ng/ml
[5]; nucleoside 0,01 µM, % of control without nucleoside (100)
  HBsAg: 36%
[5]; nucleoside 0,1 µM, % of control without nucleoside (100)
  HBsAg: 2%
[5]; nucleoside 0,03 µM, 4 days + 24 h, mean ± SD of five experiments
  HBsAg: 2,4 ± 0,3 ng/ml
[5]; nucleoside 0,3 µM, 4 days + 24 h, mean ± SD of five experiments
  HBsAg: < 0,1 ng/ml
[5]; nucleoside 0,03 µM, % of control without nucleoside (100)
  HBsAg: 12%
[5]; nucleoside 0,3 µM, % of control without nucleoside (100)
  HBsAg: < 1%
[5]; nucleoside 0,003 µM, 4 days + 24 h, mean ± SD of five experiments
  HBsAg: 14,3 ± 2,4 ng/ml
[5]; nucleoside 0,003 µM, % of control without nucleoside (100)
  HBsAg: 74%
[5]; nucleoside 1,0 µM, 4 days + 24 h, mean ± SD of five experiments
  HBsAg: < 0,1 ng/ml
[5]; nucleoside 1,0 µM, % of control without nucleoside (100)
  HBsAg: < 1%
[5]; nucleoside 3,0 µM, 4 days + 24 h, mean ± SD of five experiments
  HBsAg: < 0,1 ng/ml
[5]; nucleoside 3,0 µM, % of control without nucleoside (100)
  HBsAg: < 1%
